We go through 30 molecules from patent publication US11203565B2, “Ester compound and PIN1 inhibitor, inflammatory disease therapeutic, and colon cancer therapeutic in which said ester compound is used” (Hiroshima University, priority 2016, dated 2021).

Molecules are shown by their SMILES.

T1 sequence (Q13526 whole entry): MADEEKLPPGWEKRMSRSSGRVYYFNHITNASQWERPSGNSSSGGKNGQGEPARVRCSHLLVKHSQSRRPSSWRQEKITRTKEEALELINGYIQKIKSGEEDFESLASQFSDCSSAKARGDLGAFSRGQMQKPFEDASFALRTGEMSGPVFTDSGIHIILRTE

The subject of the first assay is Pin1 protein. In words: Confirmation of Pin1 expression level in the intestinal tract of DSS mice (Example 7). The class given is in vivo. The following applies: after 7 days of administration. The protocol: The expression level of Pin1 in the intestinal tract was measured for each mouse subjected to the therapeutic experiment in Example 5.
The present results also support that the compound synthesized in Example 2-7 (H-31) prevents development of ulcerative colitis.
For the molecule `Nc1ccc(O)c(C(=O)O)c1` [Compound 5-ASA, 5-aminosalicylic acid, reference compound], the “increase in the Pin1 protein level in the intestinal tract” value was “could not be ameliorated”.

The next assay addresses T1, Pin1 (Homo sapiens, UniProt Q13526).
T1 construct: endogenous in cells; host or cells: 293T cells
In words: Evaluation of inhibitory activity on function of Pin1: cell assay using degree of AMPK phosphorylation as index. The note with it: 293T cells, compound 100 μM, 10 mM 2-DG, pAMPK immunoblot rated by comparison with C1. Also on record: key to Pin1 inhibitory activity: −: Promotion of AMPK phosphorylation was not (or hardly) found.; +: Phosphorylation of AMPK was promoted, but the promotion was weaker than that by C1.; ++: Phosphorylation of AMPK was promoted to the same degree as in the case of C1.; +++: Phosphorylation of AMPK was promoted more strongly than in the case of C1. The class given is cell-based. How it is done:
In order to evaluate the inhibitory activities of the compounds of the present invention synthesized in Example 2 on the function of Pin1, an assay using cells was carried out according to a method previously developed by the present inventors (Yusuke Nakatsu et al., Journal of Biological Chemistry, 2015, Vol. 290, No. 40, pp. 24255-24266), using as an index the degree of phosphorylation of AMPK (AMP-activated protein kinase), whose phosphorylation is known to be suppressed by Pin1.
Briefly, 293T cells were plated on a 24-well plate coated with collagen. Forty-eight hours later, each compound (100 μM) synthesized in the Example was added to the plate, and the plate was left to stand in an incubator for 30 minutes. Thereafter, 10 mM 2-DG was added to the plate, and, 1 hour later, each sample was collected using a buffer containing mercaptoethanol and SDS.
According to conventional methods, SDS-PAGE and blotting were carried out, and then blocking was carried out with 3% BSA for 1 hour. Thereafter, reaction was carried out at normal temperature for 1 hour with each of a pAMPK antibody (Cell signaling 1:2000, Can get signal solution 1: diluted by Toyobo) as a primary antibody, and an HRP-linked anti rabbit IgG (GE healthcare 1:4000, Can get signal solution 2: diluted by Toyobo) as a secondary antibody, to perform detection.
As a compound to be compared, C1: (R)-2-(5-(4-methoxyphenyl)-2-methylfuran-3-carboxamido)-3-(naphthalene-6-yl)propanoic acid, which is an already reported Pin1 inhibitor, was used.
In FIG. 3, “-” indicates the degree of phosphorylation of AMPK in a case where no Pin1 inhibitor was added, and “C1”, “H-30”, “H-31”, “H-32”, and “H-33” indicate the degrees of phosphorylation of AMPK in cases where the respective Pin1 inhibitors were added. […] The inhibitory activity on the function of Pin1 was rated as follows based on comparison with the degree of inhibition by C1.
Regarding `O=C(O[C@H](Cc1ccc2ccccc2c1)C(=O)OCc1ccccc1)c1ccc2ccccc2c1` [Compound H-21], the Pin1 inhibitory activity result is given as “−”.
On the same count and under the same terms, the same measure for `O=C(O[C@H](Cc1ccc2ccccc2c1)C(=O)O)c1ccc(C(O)c2ccccc2)cc1` (stereo partly shown) [Compound H-23]: “++”.
In the case of `O=C(O[C@H](Cc1ccc2ccccc2c1)C(=O)O)c1ccc2ccccc2c1` [Compound H-30], the Pin1 inhibitory activity entry is given as “++”.
Same read-out and setting: the same measure for `COc1ccc(-c2cc(C(=O)O[C@H](Cc3ccc4ccccc4c3)C(=O)O)c(C)o2)cc1` [Compound H-32]: “+”; for `O=C(O[C@H](Cc1ccc2ccccc2c1)C(=O)O)c1ccc(-c2ccccc2)cc1` [Compound H-33]: “+”.
The same measure, in the same setting: the same measure for `O=C(CC1c2ccccc2-c2ccccc21)O[C@H](Cc1ccc2ccccc2c1)C(=O)O` [Compound H-106]: “++”; for `O=C(O[C@H](Cc1ccc2ccccc2c1)C(=O)O)c1ccc(Oc2ccccc2)cc1` [Compound H-123]: “++”.
In the case of `O=C(O[C@H](Cc1ccc2ccccc2c1)C(=O)O)c1cccc(Oc2ccccc2)c1` [Compound H-130], the Pin1 inhibitory activity entry was “++”.
`O=C(O[C@H](Cc1ccc2ccccc2c1)C(=O)O)c1ccccc1Oc1ccccc1` [Compound H-132]: the Pin1 inhibitory activity result is reported as “+”.
Turning to `O=C(O[C@H](Cc1ccc2ccccc2c1)C(=O)O)C(c1ccccc1)c1ccccc1` [Compound H-134], the Pin1 inhibitory activity entry is “++”.
The same measure, in the same setting: the same measure for `O=C(O[C@@H](Cc1ccc2ccccc2c1)C(=O)O)C1c2ccccc2-c2ccccc21` [Compound H-141]: “+++”.
Take `O=C(Cc1ccc2ccccc2c1)O[C@H](Cc1ccc2ccccc2c1)C(=O)O` [Compound H-149]: the Pin1 inhibitory activity result was “+”.
The same measure, in the same setting: the same measure for `O=C(Cc1cccc2ccccc12)O[C@H](Cc1ccc2ccccc2c1)C(=O)O` [Compound H-151]: “++”.
Take `O=C(O)[C@@H](Cc1ccc2ccccc2c1)OC(=O)N1c2ccccc2Oc2ccccc21` [Compound H-157]: the Pin1 inhibitory activity result is recorded as “++”.
`O=C(O)[C@@H](Cc1ccc2ccccc2c1)OC(=O)n1c2ccccc2c2ccccc21` [Compound H-175]: the Pin1 inhibitory activity entry is “+++”.
Same read-out and setting: the same measure for `O=C(COc1ccccc1)O[C@H](Cc1ccc2ccccc2c1)C(=O)O` [Compound H-176]: “++”.
Same read-out and setting: the same measure for `O=C(COc1ccc2ccccc2c1)O[C@H](Cc1ccc2ccccc2c1)C(=O)O` [Compound H-177]: “++”.
The same measure, in the same setting: the same measure for `O=C(COc1cccc2ccccc12)O[C@H](Cc1ccc2ccccc2c1)C(=O)O` [Compound H-179]: “+++”.
Turning to `O=C(Cc1c[nH]c2ccccc12)O[C@H](Cc1ccc2ccccc2c1)C(=O)O` [Compound H-180], the Pin1 inhibitory activity result is “++”.
On the same count and under the same terms, the same measure for `COc1cc(OC)cc(C(=O)O[C@H](Cc2ccc3ccccc3c2)C(=O)O)c1` [Compound H-198]: “+”; for `O=C(O[C@H](Cc1ccc2ccccc2c1)C(=O)O)c1cc(Cl)cc(Cl)c1` [Compound H-200]: “+”; for `Cc1cc(C)cc(C(=O)O[C@H](Cc2ccc3ccccc3c2)C(=O)O)c1` [Compound H-210]: “+”.
In the case of `CC(C)(C)OC(=O)N[C@@H](Cc1ccccc1)C(=O)O[C@H](Cc1ccc2ccccc2c1)C(=O)O` [Compound H-248], the Pin1 inhibitory activity entry was “+”.
Still for that read-out and setting: the same measure for `Cc1ccc(C(=O)O[C@H](Cc2ccc3ccccc3c2)C(=O)O)cc1C` [Compound H-265]: “+”; for `COc1ccc(C(=O)O[C@H](Cc2ccc3ccccc3c2)C(=O)O)cc1OC` [Compound H-266]: “+”.
On the same count and under the same terms, the same measure for `O=C(O[C@H](Cc1ccc2ccccc2c1)C(=O)O)c1ccc(Cl)c(Cl)c1` [Compound H-269]: “+”; for `O=C(O[C@H](Cc1ccc2ccccc2c1)C(=O)O)c1ccc(F)c(F)c1` [Compound H-270]: “+”.

Staying with this assay, now noted: cell-based experiment, 293T cells, 100 μM.
Turning to `O=C(O[C@H](Cc1ccc2ccccc2c1)C(=O)OCc1ccccc1)c1ccc2ccccc2c1` [Compound H-21], the “inhibitory activity on Pin1 (stated in words)” value is “no inhibitory activity on Pin1”.
On the same count and under the same terms, the same measure for `O=C(O[C@@H](Cc1ccc2ccccc2c1)C(=O)O)C1c2ccccc2-c2ccccc21` [Compound H-141]: “both have inhibitory activities on Pin1”.

For another assay, the system named is model animals of ulcerative colitis (3% DSS). Description: Therapeutic experiment using model animals of ulcerative colitis (Example 4). The following applies: DSS mice, 5-ASA 300 mg/kg/day, Day 7. The class given is in vivo, C57BL6 mice. How it is done:
To C57BL6 mice of 8 weeks old, 3% DSS (dextran sulfate sodium)-containing water or water (control) was administered by allowing the mice to drink it for 7 days. For the mice to which DSS was administered, groups in which 5-ASA (compound name: 5-aminosalicylic acid; generic name: Mesalazine), which is a therapeutic agent for inflammatory bowel diseases, the compound synthesized in Example 2-7 (H-31), or the compound synthesized in Example 2-36 (H-179) was administered, and a group in which no compound was administered were provided. On Day 7 after the beginning of the administration, the body weight of each mouse was measured, and the large intestine was removed from the mouse, followed by carrying out histological study. […] In FIGS. 4(A) and (B), “normal” indicates a case where water was administered, and “DSS” indicates cases where DSS-containing water was administered. “non” indicates a case where no compound was administered, and “5-ASA”, “H-31”, and “H-179” indicate cases where the respective compounds were administered. The dose was as follows: 5-ASA, 300 mg/kg/day; H-31, 1 mg/kg/day; H-179, 1 mg/kg/day. As shown in FIG. 4(A), weight loss due to inflammation of the intestine was found in the cases where DSS was administered.
As to `Nc1ccc(O)c(C(=O)O)c1` [Compound 5-ASA, 5-aminosalicylic acid, reference compound], the “tissue damage in the large intestine (stained section)” value (“tissue damage in the large intestine” for short) is recorded as “tissue damage in the large intestine due to DSS was found”.

Still in this assay, the particulars now being: DSS mice, compound 1 mg/kg/day, Day 7.
For the molecule `O=C(COc1cccc2ccccc12)O[C@H](Cc1ccc2ccccc2c1)C(=O)O` [Compound H-179], the “tissue damage in the large intestine” value is “tissue damage in the large intestine was hardly found”.

Still in this assay, the particulars now being: DSS mice, compound 1 mg/kg/day, Day 7, vs no compound.
As to `O=C(COc1cccc2ccccc12)O[C@H](Cc1ccc2ccccc2c1)C(=O)O` [Compound H-179], the “weight loss (body weight as ratio to body weight before administration)” value was “the weight loss was significantly smaller”.

A further assay shares this test system. Description: Therapeutic experiment using model animals of ulcerative colitis 2 (Example 6). The class given is in vivo, C57BL6 mice. The note with it: DSS mice, 5-ASA 300 mg/kg/day or 150 mg/kg/day.
Experimental: To C57BL6 mice of 8 weeks old, 3% DSS (dextran sulfate sodium)-containing water or water (control) was administered by allowing the mice to drink it for 7 days. […] On Day 7 after the beginning of the administration, the body weight of each mouse was measured, and the large intestine was removed from the mouse, followed by carrying out histological study. […] In addition, an experiment for measuring the colon length was carried out.
Regarding `Nc1ccc(O)c(C(=O)O)c1` [Compound 5-ASA, 5-aminosalicylic acid, reference compound], the “tissue damage in the large intestine” value is recorded as “tissue damage in the large intestine due to DSS was found” and the weight loss result is on record as “No significant effect was found”.

A further assay deals with mice having induced inflammation of the large intestine.
Assay: not given
The note with it: oral administration to mice, Non-patent Document 7; cited from earlier work.
As for `COc1ccc(-c2cc(C(=O)N[C@H](Cc3ccc4ccccc4c3)C(=O)O)c(C)o2)cc1` [Compound C1, (R)-2-(5-(4-methoxyphenyl)-2-methylfuran-3-carboxamido)-3-(naphthalene-6-yl)propanoic acid], the “development of inflammation of the large intestine” value is given as “development of the inflammation can be suppressed”.
As to `O=C1C=CC(=O)c2c(O)cccc21` [Juglone], the “development of inflammation of the large intestine” value is listed as “development of the inflammation can be suppressed”.
